From patent publication US20230149419A1, “COMPOSITION FOR PREVENTING OR TREATING NEUROINFLAMMATORY DISEASES, COMPRISING CHLORPROMAZINE” (GliaCellTech Inc., priority 2020, published 2023)

Columns and labels:
[1] = test system: primary microglia from wild-type mice; test: LPS-induced cytokine mRNA expression in primary microglia (qRT-PCR), wild-type; format: cell-based, mouse
Experimental: (§1) Primary microglia were obtained from wild-type mice and Psen2^N141I/+ mice with Alzheimer's disease. Specifically, brains were excised from neonatal mice 1 to 3 days old and cells were obtained therefrom. The cells were cultured in Dulbecco's modified Eagle's medium (DMEM, Corning) supplemented with 10% heat-inactivated fetal bovine serum (HI-FBS, Hyclone) and 1% penicillin-streptomycin (Hyclone). Primary microglia were isolated in vitro by tapping after 12 days of culturing. Purity of primary microglia was estimated by immunostaining with an antibody against Iba-1, which is a microglial marker.
In this regard, the primary microglia were preincubated with or without 0.5 μM chlorpromazine for 30 min before LPS treatment. Anti-inflammatory effects were compared and analyzed between the test groups.
The culture of each group was measured for microglial mRNA expression levels of the target cytokines by qRT-PCR (quantitative RT-PCR). Specifically, RNA was isolated from the microglia and cDNA was synthesized using an ImProm-II Reverse Transcriptase kit (Promega). PCR primers were commercially available (Cosmo Genetech). qRT-PCR was performed using Taq Polymerase (Invitrogen) and mouse cDNA-specific primers listed in Table 6, below. In addition, TOPreal™ qPCR 2×PreMIX (SYBR Green with low ROX) (Enzynomics) was used. Amplification (50 cycles) was performed for 50 cycles with all primers in a CFX96 Real-Time System (Bio-Rad). Actb was used as the reference genes for normalization.

[2] = test system: primary microglia from Psen2 mutation mouse model of Alzheimer's disease; test: IL-1β secretion after LPS and inflammasome activation (nigericin/ATP), Psen2 mutation microglia; format: cell-based; details: for IL-1β secreted: chlorpromazine 30 min, LPS 1 μg/mL 3 h
Experimental: as §1
IL-1β is a cytokine released from an activated inflammasome complex in microglia. For secretion of the cytokine, additional treatment with a drug for inducing activation of the inflammasome complex is necessary following LPS-induced inflammation. […] Application of the test groups thus obtained could divide groups 5 to 8 of Example 5-2 into 10 subgroups according to treatment with nigericin and ATP.

[3] = test system: primary microglia from wild-type (WT) mice; test: fAβ42-induced cytokine secretion in primary microglia (ELISA), wild-type; format: cell-based, mouse; details: 4 μM fAβ42, 0.5 μM chlorpromazine (Group 24)
Experimental: as §1
Specifically, FITC-conjugated amyloid beta 1-42 was prepared according to the follow reference (Cho, M.-H. et al. “Autophagy in microglia degrades extracellular β-amyloid fibrils and regulates the NLRP3 inflammasome.” Autophagy 10, 1761-1775 (2014)).
The primary cultures of microglia prepared in Example 5-1 from the Psen2 mutation (KI/+) mouse model of Alzheimer's disease and the wild-type (WT) mice were directly treated with 4 μM of the fibrilized amyloid beta 1-42 (fAβ42), followed by incubation with or without 0.5 μM chlorpromazine.

[4] = test system: Nr1d1 mRNA in primary microglia from Psen2 mouse model of Alzheimer's disease; test: Nr1d1 mRNA expression in primary microglia (qRT-PCR), Psen2 mutation; format: cell-based
Experimental: Effects were analyzed in the experimental group not treated with chlorpromazine on the obtained microglia and the experimental group treated with chlorpromazine at a dose of 0.5 μM.

[5] = test system: REV-ERBα protein in primary microglia from Psen2 mouse model of Alzheimer's disease; test: REV-ERBα protein expression in primary microglia (western blotting), Psen2 mutation; format: cell-based
Experimental: Effects were analyzed in the experimental group not treated with chlorpromazine on the obtained microglia and the experimental group treated with chlorpromazine at a dose of 0.5 μM. For analysis of REV-ERBα protein expression levels, western blotting was carried out. Specifically, primary microglia were lysed in a 1% Triton X-100 lysis buffer (1% Triton X-100, 250 mM sucrose, 1 mM EDTA, 1 mM phenylmethylsulfonyl fluoride, and 50 mM NaCl in 20 mM Tris-HCl, pH 7.4) with 1×protease and phosphatase inhibitors (Thermo Fisher Scientific) and 0.1 M dithiothreitol (Sigma-Aldrich). The cell lysates were separated by sodium dodecyl sulfate-polyacrylamide gel electrophoresis and transferred to polyvinylidene fluoride membranes. The membranes were incubated with the appropriate primary antibodies, and bound antibodies were detected by species-specific, horseradish peroxidase-conjugated secondary antibodies. Chemiluminescence detection was performed to analyze the protein bands of interest.

[6] = test system: Psen2 mutation mouse model of Alzheimer's disease; test: Y-maze test, Psen2 mutation mouse model of Alzheimer's disease; format: in vivo; details: for Y-maze Alternation % / Y-maze No. of Arm entry: chlorpromazine 0.25 mg/kg i.p., mean±SEM
Experimental: Specifically, the Y-maze was used to evaluate spatial working memory. The assay was conducted in white plastic arms of a Y-shaped maze. A mouse was placed in the center of the maze and was allowed to freely explore the arms for 5 min. The experiment was recorded with EthoVision software (Noldus). The number of arm entries and the number of triads were analyzed to calculate the percentage of alternation by dividing the number of three consecutive arm entries (triads) by the number of possible triads×100 (total arm entries−2).
An examination was made to see whether LPS-induced inflammation causes memory decline and chlorpromazine reverses the LPS-induced inflammation in disease animal models. To analyze memory and behavior performance, the Y-maze test as in Example 4 was conducted.

[7] = test system: elderly with schizophrenia; details: taken for a long time at the current market dose; cited from earlier work
wild-type mice = test: Serum cytokine levels after low-concentration LPS injection, wild-type mice
Experimental: (§2) To investigate neuroinflammation at various concentrations of LPS, blood was extracted from cheek veins in the wild-type mice in group 2 and the mouse model of Alzheimer's disease in group 4 20 hours after the injection of LPS. The sera obtained by centrifugation were quantitatively analyzed for IL-6, TNFα, CCL2, CXCL1, and CCL5 by using ELISA kit (R&D Systems) according to the manufacturer's instruction. In addition, the same procedure was conducted for the wild-type mice without LPS injection of group 1 and the Psen2^N141I mutation mouse model of Alzheimer's disease of group 3 to obtain sera which were then analyzed for the proteins by using the ELISA kit according to the manufacturer's instruction.
(§3) The wild-type mice and the Psen2 mutation mouse model of Alzheimer's disease obtained in Example 1 were intraperitoneally injected with chlorpromazine (0.25 mg/body weight kg) at 14:00 and then with such a low concentration of LPS (0.35 μg/kg) as to be ineffective for inflammation in wild-type mice at 18:00 (Zeitgeber time light-on at 11:00 and 07:00). After 20 hours, the mice were monitored for inflammatory responses and memory behavior. The concentration of chlorpromazine (0.25 mg/body weight kg) used in this assay is tens- to hundreds-fold lower than those conventionally used as an antipsychotic (25 mg/injection, 3 times/day).
(§4) After the experiment conducted as in the scheme of FIG. 11A, the wild-type and the Psen2^N141I/+ Alzheimer's disease mice, both intraperitoneally injected with LPS, were analyzed for inflammatory response according to chlorpromazine treatment as measured for serum levels of the circadian clock-controlled cytokines (IL-6, CXCL1, CCL2, and CCL5) by ELISA as in Example 2.

[8] = test system: Psen2^N141I/+ Alzheimer's disease mice; test: Serum cytokine levels after low-concentration LPS injection, Psen2 mutation mice
Experimental: as §2, §3, §4

[9] = WT microglia, LPS 1 μg/mL 12 h, 0.5 μM chlorpromazine (Group 6)
[10] = KI/+ microglia, no LPS, 0.5 μM chlorpromazine (Group 30), mean±SEM
[11] = Psen2 mutation microglia, group 30, chlorpromazine 0.5 μM
[12] = Alzheimer's disease model/LPS(+)/CPZ(+) (Group 48), LPS 0.35 μg/kg
[13] = Alzheimer's disease model/LPS(−)/CPZ(+) (Group 46)
[14] = chlorpromazine 0.25 mg/kg i.p., LPS 0.35 μg/kg i.p., 20 h after LPS (Group 38)
[15] = Alzheimer's disease model mice, chlorpromazine 0.25 mg/kg i.p., LPS 0.35 μg/kg i.p., 20 h after LPS (Group 40)

SMILES: CN(C)CCCN1c2ccccc2Sc2ccc(Cl)cc21 [CPZ, 3-(2-chloro-10H-phenothiazin-10-yl)-N,N-dimethyl-propan-1-amine]
- Inflammatory cytokine expression Ccl2 (mRNA) [1, 9]: 0.907 fold
- Inflammatory cytokine expression Ccl5 (mRNA) [1, 9]: 1.113 fold
- Inflammatory cytokine expression Cxcl1 (mRNA) [1, 9]: 0.968 fold
- Inflammatory cytokine expression Tnf (mRNA) [1, 9]: 1.066 fold
- Inflammatory cytokine expression Il-6 (mRNA) ([1]; WT microglia, LPS 1 μg/mL 12 h, 0.5 μM chlorpromazine (Group 6), normalized to Actb): 0.947 fold
- mRNA levels of circadian clock-controlled cytokines (in words) ([1]; wild-type microglia, groups 5 and 6, LPS): not affected
- IL-1β secreted ([2]; Psen2 mutation microglia (Group 20), Nig(+)/ATP(−), nigericin 10 μM 40 min): 946.122 pg/mL
- IL-1β secreted ([2]; Psen2 mutation microglia (Group 22), Nig(−)/ATP(+), ATP 5 mM 40 min): 1186.118 pg/mL
- production of IL-1β (in words) ([2]; across all the groups (WT and Psen2 mutation microglia), LPS plus nigericin or ATP): no impacts
- Secreted inflammatory cytokine CCL2 [3]: 1062.537 pg/mL
- Secreted inflammatory cytokine CCL5 [3]: 1204.562 pg/mL
- Secreted inflammatory cytokine CXCL1 [3]: 1237.646 pg/mL
- Secreted inflammatory cytokine IL-6 [3]: 1164.200 pg/mL
- Secreted inflammatory cytokine TNF-α [3]: 1218.952 pg/mL
- Nr1d1 mRNA expression [4, 10]: 0.976 ± 0.094 fold
- Nr1d1 mRNA expression level (in words) [4, 11]: restored to the level in the wild-type group
- REV-ERBα protein expression [5, 10]: 0.882 ± 0.032 fold
- REV-ERBα protein expression level (in words) [5, 11]: restored to the level in the wild-type group
- Y-maze Alternation % [6, 12]: 72.000 ± 3.964%
- Y-maze No. of Arm entry [6, 12]: 16.500 ± 1.368
- Y-maze Alternation % [6, 13]: 77.714 ± 4.699%
- Y-maze No. of Arm entry [6, 13]: 18.286 ± 1.063
- LPS-induced memory decline, arm alternation in Y-maze (in words) ([6]; LPS-injected Psen2 mutation mouse model, group 48): sufficient recovery
- memory performance, arm alternation in Y-maze (in words) ([6]; Psen2 mutation mice, chlorpromazine alone vs no drug treatment): no significant different memory performance
- side effect on mortality [7]: increasing the mortality rate
- Inflammatory cytokine secreted IL-6 (serum) (wild-type mice; chlorpromazine 0.25 mg/kg i.p. 4 h before LPS 0.35 μg/kg i.p., 20 h after LPS (Group 38)): 68.214 pg/mL
- Inflammatory cytokine secreted CCL2 (serum) (wild-type mice; [14]): 117.032 pg/mL
- Inflammatory cytokine secreted CCL5 (serum) (wild-type mice; [14]): 80.808 pg/mL
- Inflammatory cytokine secreted CXCL1 (serum) (wild-type mice; [14]): 172.313 pg/mL
- Inflammatory cytokine secreted TNF-α (serum) (wild-type mice; [14]): 62.634 pg/mL
- production of the circadian clock-controlled cytokines in serum (in words) (wild-type mice; groups 37 and 38, LPS 0.35 μg/kg): did not affect
- Inflammatory cytokine secreted CCL2 (serum) [8, 15]: 107.403 pg/mL
- Inflammatory cytokine secreted CCL5 (serum) [8, 15]: 93.240 pg/mL
- Inflammatory cytokine secreted CXCL1 (serum) [8, 15]: 173.999 pg/mL
- Inflammatory cytokine secreted IL-6 (serum) [8, 15]: 44.280 pg/mL
- Inflammatory cytokine secreted TNF-α (serum) [8, 15]: 71.248 pg/mL
- production of the circadian clock-controlled cytokines in serum (in words) ([8]; Psen2 mutation mice, group 40 vs 39, LPS 0.35 μg/kg): remarkably repressed
